In assay [1] the target is PIK3CA, P42336 [Wild Type]. Put plainly: Inhibition of PIK3CA (Wild Type) Kinase Activity.
Assay [2] deals with PIK3CA (UniProt P42336). The assay can be described thus: Inhibition of PIK3CA Kinase Activity.

The term IC50 denotes the concentration that inhibits the measured activity by half.

PIK3CA, P42336 [Wild Type], sequence (P42336 whole entry, looked up): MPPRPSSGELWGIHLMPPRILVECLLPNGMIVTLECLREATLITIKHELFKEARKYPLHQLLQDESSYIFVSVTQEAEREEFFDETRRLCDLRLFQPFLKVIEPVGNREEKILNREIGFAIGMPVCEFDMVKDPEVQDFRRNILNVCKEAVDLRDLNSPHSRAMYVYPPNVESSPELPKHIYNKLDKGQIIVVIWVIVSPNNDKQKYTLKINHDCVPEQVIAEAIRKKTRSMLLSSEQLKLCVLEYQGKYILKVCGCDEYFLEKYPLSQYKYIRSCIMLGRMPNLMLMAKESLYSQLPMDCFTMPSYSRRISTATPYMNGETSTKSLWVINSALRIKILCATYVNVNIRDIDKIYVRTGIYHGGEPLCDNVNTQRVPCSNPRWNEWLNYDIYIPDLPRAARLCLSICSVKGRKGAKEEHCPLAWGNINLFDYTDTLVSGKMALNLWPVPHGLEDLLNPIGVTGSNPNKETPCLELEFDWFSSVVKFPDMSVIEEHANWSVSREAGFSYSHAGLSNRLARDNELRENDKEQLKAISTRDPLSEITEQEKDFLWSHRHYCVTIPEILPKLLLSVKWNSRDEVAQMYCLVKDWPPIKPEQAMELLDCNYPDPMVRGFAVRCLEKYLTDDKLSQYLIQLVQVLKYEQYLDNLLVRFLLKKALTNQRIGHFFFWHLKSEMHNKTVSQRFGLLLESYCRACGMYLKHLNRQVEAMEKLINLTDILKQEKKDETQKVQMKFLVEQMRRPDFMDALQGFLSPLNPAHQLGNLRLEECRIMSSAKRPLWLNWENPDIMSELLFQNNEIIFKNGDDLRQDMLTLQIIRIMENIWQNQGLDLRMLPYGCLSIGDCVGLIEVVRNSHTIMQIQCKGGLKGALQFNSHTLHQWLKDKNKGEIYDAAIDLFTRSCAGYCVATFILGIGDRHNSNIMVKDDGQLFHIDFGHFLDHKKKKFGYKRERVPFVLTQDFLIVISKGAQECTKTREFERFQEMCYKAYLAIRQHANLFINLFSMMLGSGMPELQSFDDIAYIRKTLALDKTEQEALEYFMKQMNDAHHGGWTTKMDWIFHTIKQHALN
PIK3CA, sequence (P42336 whole entry, looked up): as above

As to `Cc1c(N2CCOCC2)oc2ccccc2c1=O`, the figures for the IC50 in assay [1] and in assay [2] were 33 µM and 40 µM, respectively.
The like results for `CCCc1c(N2CCOCC2)oc2ccccc2c1=O` were, in that order, 31 µM and 68 µM.
For the compound `CC(C)c1c(N2CCOCC2)oc2ccccc2c1=O`, the IC50 in assay [1] was 51 µM; in assay [2] it was > 200 µM.
For the compound `CCc1c(N2CCOCC2)oc2ccccc2c1=O`, the IC50 came out at 28 µM in assay [1] and 4.4 µM in assay [2].
On to `O=c1c(Cc2ccccc2)c(N2CCOCC2)oc2ccccc12`, for which the IC50 in assay [1] and in assay [2] was > 200 µM each time.
As for `O=c1c(-c2ccccc2)c(N2CCOCC2)oc2ccccc12`, the concentration for half-maximal inhibition (IC50) in assay [1] and in assay [2] was > 200 µM each time.
As to `CCCCc1c(N2CCOCC2)oc2ccccc2c1=O`, the values for the IC50 in assay [1] and in assay [2] were 25 µM and 48 µM, respectively.
As for `O=c1cc(N2CCOCC2)oc2ccccc12`, the values for the IC50 in assay [1] and in assay [2] were 2.6 µM and 15 µM, respectively.
